This passage reports EC50 and MIC results from patent US12173018B2, “Penicillin-binding protein inhibitors” (priority 2018, dated 2024).

One test has as its target E. coli PBP3 (Escherichia coli (strain K12), UniProt P0AD68). As to the kind of experiment: E. coli PBP3 Bocillin-FL fluorescence polarization competition binding assay. In outline: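 This was a fluorescence polarization competition with fluorescent penicillin Bocillin-FL (0.1 μM final), read at 490/520 nm for 60 min immediately after its addition. The buffer was Hepes pH 8.0 with 300 mM NaCl and 5% glycerol, containing 1.5 μM PBP and test inhibitor up to 1000 μM. Potency is expressed as EC50 for reducing probe binding.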
For orientation: Fluorescence polarisation rises when a labelled molecule tumbles more slowly, as on binding a larger partner.

The next test deals with E. coli PBP2 (Escherichia coli (strain K12), UniProt P0AD65). As to the kind of experiment: E. coli PBP2 Bocillin-FL fluorescence polarization competition binding assay. Particulars: fluorescence polarization competition binding with Bocillin-FL; read-out: E. coli K12 PBP2 Potency (EC50). The source says:
To determine the ability of boronic acid-based test PBP inhibitors to bind Penicillin Binding Proteins (PBPs), Bocillin-FL (fluorescently-labeled penicillin V; ThermoFisher Scientific) was used in a fluorescence polarization (FP) competition binding assay to assess inhibitor binding to PBP2, PBP3 or PBP4 from Escherichia coli. PBPs were cloned and purified as described previously (King, D. T, et al., ACS Infectious Diseases 2015, 1, 175-184). To establish assay conditions for competition binding, an enzyme titration/saturation binding experiment was initially performed. Bocillin-FL was prepared at 0.2 μM in a buffer comprised of 50 mM Hepes (pH 8.0), 300 mM NaCl and 5% (v/v) glycerol. Saturation binding was performed by mixing 40 μl of PBP solutions ranging in concentrations from 0-12 μM with 40 μl of the 0.2 μM Bocillin-FL solution, in individual wells of a black 384-well microplate. FP was measured immediately upon mixing (Excitation, 490 nm; Emission, 520 nm; g-factor, 0.96), using a Cytation3 (BioTek) microplate reader and measured continuously for up to 120 minutes. […] For all PBPs the FP signal approached saturation with 1.5 μM PBP (final concentration). […] Assays (80 μl final volume) were performed with PBPs at a final concentration of 1.5 μM, Bocillin-FL at 0.1 μM and beta-lactam concentrations that ranged from 0-1000 μM. […] Bocillin-FL was added and the FP immediately measured for 60 minutes (90 minutes for PBP2). The beta-lactam potency was reported as the concentration of beta-lactam required to reduce binding of Bocillin-FL by […] (EC50). […] Binding assays for boronic acid PBP inhibitors were performed in an identical fashion.

The test system of test [1] is engineered strain of Escherichia coli harboring CTX-M15. As to the kind of experiment: microbe, parasite or virus in culture. The class given is cell-based. The following applies: Escherichia coli, read-out: Microbiological Activity (MIC in mg/L), E. coli DH5α/pLBII-CTX-M15, engineered strain producing CTX-M15.
Test [2] deals with N. gonorrhoeae ATCC 49226. Nature of the test: Liquid broth MIC, N. gonorrhoeae ATCC 49226. The class given is cell-based. The following applies: Neisseria gonorrhoeae, ATCC49226; N. gonorrhoeae ATCC 49226, liquid broth; read-out: Minimum Inhibitory Concentration, N. gonorrhoeae ATCC 49226. In outline: (§1)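 MIC taken by eye as the lowest well lacking growth after 40-42 h at 36° C under 5% CO2. Compounds were 2-fold serially diluted; the starting inoculum of 5×10^5 CFU/mL came from direct colony suspensions grown on Kellogg's-supplemented GC agar.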

Another test concerns N. gonorrhoeae FA1090. As to the kind of experiment: Liquid broth MIC, N. gonorrhoeae FA1090. The class given is cell-based. The following applies: Neisseria gonorrhoeae; N. gonorrhoeae FA1090, liquid broth; read-out: Minimum Inhibitory Concentration, N. gonorrhoeae FA1090. In outline: as §1
The subject of the next test is N. gonorrhoeae WHO F. Nature of the test: Liquid broth MIC, N. gonorrhoeae WHO F. The following applies: Neisseria gonorrhoeae; N. gonorrhoeae WHO F, liquid broth; read-out: Minimum Inhibitory Concentration, N. gonorrhoeae WHO F. The class given is cell-based. In outline: as §1
For another test, the system named is N. gonorrhoeae FA19. As to the kind of experiment: Liquid broth MIC, N. gonorrhoeae FA19. The following applies: Neisseria gonorrhoeae; N. gonorrhoeae FA19, liquid broth; read-out: Minimum Inhibitory Concentration, N. gonorrhoeae FA19. It counts as cell-based. In outline:
as §1

The target of a further test is E. coli PBP1b (Escherichia coli (strain K12), UniProt P02919). As to the kind of experiment: Radioligand competition binding assay with 14C-labeled boronic acid probe, PBP1b. (In a radioligand displacement assay an active substance lowers the binding of a labelled ligand.)
Sequence of E. coli PBP1b (P02919 whole entry): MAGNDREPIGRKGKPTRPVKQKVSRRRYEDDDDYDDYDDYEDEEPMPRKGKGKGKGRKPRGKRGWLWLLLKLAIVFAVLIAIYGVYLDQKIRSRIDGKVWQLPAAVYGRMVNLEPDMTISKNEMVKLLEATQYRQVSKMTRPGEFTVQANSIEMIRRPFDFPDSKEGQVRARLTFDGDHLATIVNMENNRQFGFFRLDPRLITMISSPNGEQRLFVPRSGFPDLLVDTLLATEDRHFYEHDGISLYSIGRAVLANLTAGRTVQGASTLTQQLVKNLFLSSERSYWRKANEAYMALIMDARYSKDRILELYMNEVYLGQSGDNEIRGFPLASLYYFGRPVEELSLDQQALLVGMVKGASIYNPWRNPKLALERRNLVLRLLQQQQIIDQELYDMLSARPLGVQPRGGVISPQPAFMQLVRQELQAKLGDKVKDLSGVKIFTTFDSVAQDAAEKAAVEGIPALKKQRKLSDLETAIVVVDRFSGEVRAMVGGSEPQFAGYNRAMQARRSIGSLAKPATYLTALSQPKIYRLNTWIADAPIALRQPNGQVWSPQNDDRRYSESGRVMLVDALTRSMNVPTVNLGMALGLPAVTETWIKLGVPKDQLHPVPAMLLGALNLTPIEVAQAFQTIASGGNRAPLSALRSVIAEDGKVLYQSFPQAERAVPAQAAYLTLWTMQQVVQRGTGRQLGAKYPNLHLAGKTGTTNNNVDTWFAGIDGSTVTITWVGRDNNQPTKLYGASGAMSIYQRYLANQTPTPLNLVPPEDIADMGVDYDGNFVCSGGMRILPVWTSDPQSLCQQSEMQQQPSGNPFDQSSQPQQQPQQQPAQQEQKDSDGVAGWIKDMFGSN
The subject of another test is E. coli ATCC 25922. Nature of the test: Broth microdilution MIC, E. coli ATCC 25922. The class given is cell-based. Particulars: Escherichia coli, ATCC25922; E. coli ATCC 25922, broth microdilution; read-out: MIC E. coli 25922. In outline:
(§2)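 CLSI broth microdilution in cation-supplemented Mueller-Hinton broth; 2-fold compound dilutions inoculated at 5×10^5 CFU/mL from a 3-5 h log-phase culture. Plates incubated 16-20 hours at 37° C; MIC read visually as lowest concentration with no growth.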

For another test, the system named is E. coli AG100. As to the kind of experiment: Broth microdilution MIC, E. coli AG100 (wild-type parent). The class given is cell-based. Particulars: Escherichia coli; wild-type parent E. coli AG100, broth microdilution; read-out: MIC E. coli AG100. In short, it runs like this:
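Broth microdilution in cation-supplemented Mueller-Hinton broth, 2-fold serial compound dilutions, inoculum 5×10^5 CFU/mL from 3-5 h log culture.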
On the technique in general: In broth dilution the organism is exposed to a series of concentrations in liquid medium.

The subject of the next test is E. coli 901C. As to the kind of experiment: microbe, parasite or virus in culture. It counts as cell-based. The following applies: Escherichia coli; hyper-permeable E. coli 901C, broth microdilution; read-out: MIC E. coli 901C. In outline: as §2
The next test relates to E. coli AG100A. As to the kind of experiment: microbe, parasite or virus in culture. It counts as cell-based. Particulars: Escherichia coli, read-out: MIC E. coli AG100A. In outline:
as §2

Another test deals with E. coli D22. Nature of the test: microbe, parasite or virus in culture. It counts as cell-based. Particulars: Escherichia coli; hyper-permeable E. coli D22, broth microdilution; read-out: MIC E. coli D22. In short, it runs like this: as §2
Another test relates to K. pneumoniae SI-117. As to the kind of experiment: microbe, parasite or virus in culture. It counts as cell-based. The following applies: Klebsiella pneumoniae, SI117, read-out: MIC K. pneumoniae SI-117. In outline:
as §2

The test system of the next test is K. pneumoniae UMM. Nature of the test: microbe, parasite or virus in culture. The class given is cell-based. The following applies: Klebsiella pneumoniae; K. pneumoniae UMM producing SHV-5 and KPC-2; read-out: MIC K. pneumoniae UMM. In outline:
as §2

The next test has as its system K. pneumoniae 848844. As to the kind of experiment: microbe, parasite or virus in culture. The class given is cell-based, Klebsiella pneumoniae. The following applies: Klebsiella pneumoniae; K. pneumoniae 848844 producing SHV-11 and KPC-2; read-out: MIC K. pneumoniae 848844. In outline:
as §2

Where [3] appears, read: fluorescence polarization competition binding with Bocillin-FL, read-out: E. coli K12 PBP3 Potency.

Values after ≈ are worked out from the molar mass of the structure shown. Like-named read-outs stand apart in the source and are kept apart here.

Sequence of E. coli PBP2 (P0AD65 whole entry): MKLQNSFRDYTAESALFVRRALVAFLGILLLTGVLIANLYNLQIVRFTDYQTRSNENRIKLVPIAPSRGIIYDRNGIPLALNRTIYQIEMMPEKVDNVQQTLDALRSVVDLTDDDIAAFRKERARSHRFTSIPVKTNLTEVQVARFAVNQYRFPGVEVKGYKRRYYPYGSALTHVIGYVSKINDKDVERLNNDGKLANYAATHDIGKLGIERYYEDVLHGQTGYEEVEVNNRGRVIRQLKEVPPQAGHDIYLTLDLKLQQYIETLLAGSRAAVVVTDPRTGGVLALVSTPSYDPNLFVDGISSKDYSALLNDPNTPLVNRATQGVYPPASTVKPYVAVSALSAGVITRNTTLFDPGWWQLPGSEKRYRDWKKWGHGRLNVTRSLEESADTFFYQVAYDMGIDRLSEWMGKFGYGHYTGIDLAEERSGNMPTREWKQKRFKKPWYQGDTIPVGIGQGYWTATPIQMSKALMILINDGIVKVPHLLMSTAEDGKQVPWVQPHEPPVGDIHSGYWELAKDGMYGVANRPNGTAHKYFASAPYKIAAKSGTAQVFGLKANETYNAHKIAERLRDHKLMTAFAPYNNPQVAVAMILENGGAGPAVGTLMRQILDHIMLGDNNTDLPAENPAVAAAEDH
Sequence of E. coli PBP3 (P0AD68 whole entry): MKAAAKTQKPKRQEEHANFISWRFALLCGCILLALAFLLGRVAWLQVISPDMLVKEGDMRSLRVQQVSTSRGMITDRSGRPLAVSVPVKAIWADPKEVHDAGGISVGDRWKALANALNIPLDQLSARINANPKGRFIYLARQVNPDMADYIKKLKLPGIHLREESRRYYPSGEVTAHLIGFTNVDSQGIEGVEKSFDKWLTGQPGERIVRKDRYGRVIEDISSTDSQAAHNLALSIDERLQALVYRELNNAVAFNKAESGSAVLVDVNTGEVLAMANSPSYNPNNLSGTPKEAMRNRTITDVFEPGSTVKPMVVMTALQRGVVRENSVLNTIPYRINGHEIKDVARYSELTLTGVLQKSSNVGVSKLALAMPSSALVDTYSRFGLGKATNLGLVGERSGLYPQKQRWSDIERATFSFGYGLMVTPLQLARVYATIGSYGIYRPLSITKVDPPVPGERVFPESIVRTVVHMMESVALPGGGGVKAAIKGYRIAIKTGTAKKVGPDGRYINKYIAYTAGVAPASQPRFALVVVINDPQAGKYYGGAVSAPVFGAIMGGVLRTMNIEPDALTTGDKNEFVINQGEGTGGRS

For the molecule `CCN1CCN(C(=O)NC(C(=O)N[C@H]2Cc3cccc(C(=O)O)c3OB2O)c2ccc(OC)cn2)C(=O)C1=O` (stereo partly drawn) [Example 81, (3R)-3-(2-(4-ethyl-2,3-dioxopiperazine-1-carboxamido)-2-(5-methoxypyridin-2-yl)acetamido)-2-hydroxy-3,4-dihydro-2H-benzo[e][1,2]oxaborinine-8-carboxylic acid], the EC50 at E. coli PBP3 and on E. coli PBP2 was 30 to 500 µM each time. Besides, in test [1], the MIC lay in the range of 128 to 256 mg/L (≈ 237 to 475 µM).
Consider `CCCN1CCN(C(=O)NC(C(=O)N[C@H]2Cc3cccc(C(=O)O)c3OB2O)c2cnc(N)s2)C(=O)C1=O` (stereo partly drawn) [Example 101, (3R)-3-(2-(2-aminothiazol-5-yl)-2-(2,3-dioxo-4-propylpiperazine-1-carboxamido)acetamido)-2-hydroxy-3,4-dihydro-2H-benzo[e][1,2]oxaborinine-8-carboxylic acid], for which the EC50 is 30 to 500 µM on E. coli PBP3 and over 500 µM at E. coli PBP2. Moreover, the MIC was 1 to 2 µg/mL (≈ 1.84 to 3.67 µM) in test [2]; under 0.125 µg/mL in the test on N. gonorrhoeae FA1090; under 0.125 µg/mL with N. gonorrhoeae WHO F; 1 to 2 µg/mL (≈ 1.84 to 3.67 µM) in the test with N. gonorrhoeae FA19; 32 to 64 mg/L (≈ 58.8 to 118 µM) in test [1].
On to `CCN1CCN(C(=O)NC(C(=O)N[C@H]2Cc3cccc(C(=O)O)c3OB2O)c2ccc(F)cn2)C(=O)C1=O` (stereo partly drawn) [Example 114, (3R)-3-(2-(4-ethyl-2,3-dioxopiperazine-1-carboxamido)-2-(5-fluoropyridin-2-yl)acetamido)-2-hydroxy-3,4-dihydro-2H-benzo[e][1,2]oxaborinine-8-carboxylic acid], for which the EC50 at E. coli PBP3 was 30 to 500 µM; on E. coli PBP2, over 500 µM; on E. coli PBP1b, over 100 µM. Further, in [1], the MIC lay in the range of 128 to 256 mg/L (≈ 243 to 486 µM).
On to `C[C@@H](O)[C@@H](NC(=O)N1CCN(CCF)C(=O)C1=O)C(=O)N[C@H]1Cc2ccc(F)c(C(=O)O)c2OB1O` [Example 126, (R)-7-fluoro-3-((2R,3R)-2-(4-(2-fluoroethyl)-2,3-dioxopiperazine-1-carboxamido)-3-hydroxybutanamido)-2-hydroxy-3,4-dihydro-2H-benzo[e][1,2]oxaborinine-8-carboxylic acid], for which the EC50 at E. coli PBP3 (setting [3]) and at E. coli PBP2 was over 500 µM throughout. In addition, the MIC with E. coli ATCC 25922 lay within 8 to 16 µg/mL; in the test on E. coli AG100, 8 to 16 µg/mL; in the test on E. coli 901C, 2 to 4 µg/mL; in the test with E. coli AG100A, 8 to 16 µg/mL; with E. coli D22, 2 to 4 µg/mL; in the test on K. pneumoniae SI-117 it was 8 to 16 µg/mL. Besides, the MIC with K. pneumoniae UMM was 8 to 16 µg/mL; with K. pneumoniae 848844, 32 to 64 µg/mL.
In the case of `CCN1CCN(C(=O)NC(C(=O)N[C@H]2Cc3ccc(F)c(C(=O)O)c3OB2O)c2cccs2)C(=O)C1=O` (stereo partly drawn) [Example 142, (3R)-3-(2-(4-ethyl-2,3-dioxopiperazine-1-carboxamido)-2-(thiophen-2-yl)acetamido)-7-fluoro-2-hydroxy-3,4-dihydro-2H-benzo[e][1,2]oxaborinine-8-carboxylic acid], the EC50 was 30 to 500 µM on E. coli PBP3 and over 500 µM on E. coli PBP2. For the same molecule, the MIC is 0.25 to 0.5 µg/mL (≈ 0.47 to 0.939 µM) in [2], under 0.125 µg/mL with N. gonorrhoeae FA1090, under 0.125 µg/mL with N. gonorrhoeae WHO F and 1 to 2 µg/mL (≈ 1.88 to 3.76 µM) in the test with N. gonorrhoeae FA19.
Consider `CCN1CCN(C(=O)NC(C(=O)N[C@H]2Cc3cccc(C(=O)O)c3OB2O)c2ccc(N)nc2)C(=O)C1=O` (stereo partly drawn) [Example 148, (3R)-3-(2-(6-aminopyridin-3-yl)-2-(4-ethyl-2,3-dioxopiperazine-1-carboxamido)acetamido)-2-hydroxy-3,4-dihydro-2H-benzo[e][1,2]oxaborinine-8-carboxylic acid], for which the EC50 at E. coli PBP3 was 30 to 500 µM; on E. coli PBP2 it was over 500 µM. In addition, the MIC in the test on E. coli ATCC 25922 was 8 to 16 µg/mL; in the test with E. coli AG100 it was 32 to 64 µg/mL; in the test on E. coli 901C it was 0.5 to 1 µg/mL; with E. coli AG100A, 2 to 4 µg/mL; with E. coli D22 it was 2 to 4 µg/mL; in the test with K. pneumoniae SI-117, 32 to 64 µg/mL. The MIC in the test on K. pneumoniae UMM and in the test on K. pneumoniae 848844 was 32 to 64 µg/mL in each case.
For `CCN1CCN(C(=O)NC(C(=O)N[C@H]2Cc3cccc(C(=O)O)c3OB2O)c2ccc(NS(C)(=O)=O)cn2)C(=O)C1=O` (stereo partly drawn) [Example 154, (3R)-3-(2-(4-ethyl-2,3-dioxopiperazine-1-carboxamido)-2-(5-(methylsulfonamido)pyridin-2-yl)acetamido)-2-hydroxy-3,4-dihydro-2H-benzo[e][1,2]oxaborinine-8-carboxylic acid], the EC50 at E. coli PBP3 and on E. coli PBP2 was 30 to 500 µM in each case. For the same molecule, the MIC in the test on E. coli ATCC 25922 is over 128 µg/mL; in the test with E. coli AG100, over 128 µg/mL; in the test on E. coli 901C, 0.5 to 1 µg/mL; in the test on E. coli AG100A, 8 to 16 µg/mL; in the test with E. coli D22 it was 8 to 16 µg/mL; with K. pneumoniae SI-117 it was over 128 µg/mL. Moreover, the MIC in the test on K. pneumoniae UMM and in the test on K. pneumoniae 848844 was over 128 µg/mL throughout.
For `CCN1CCN(C(=O)N[C@@H](C(=O)N[C@H]2Cc3cccc(C(=O)O)c3OB2O)c2ccc(O)c(F)c2)C(=O)C1=O` [Example 156, (R)-3-((R)-2-(4-ethyl-2,3-dioxopiperazine-1-carboxamido)-2-(3-fluoro-4-hydroxyphenyl)acetamido)-2-hydroxy-3,4-dihydro-2H-benzo[e][1,2]oxaborinine-8-carboxylic acid], the EC50 is under 30 µM at E. coli PBP3 (setting [3]) and over 500 µM at E. coli PBP2. Further, the MIC in the test with E. coli ATCC 25922 is 32 to 64 µg/mL; in the test with E. coli AG100, 32 to 64 µg/mL; in the test on E. coli 901C it was under 0.25 µg/mL; in the test with E. coli AG100A, 2 to 4 µg/mL; in the test with E. coli D22, 2 to 4 µg/mL; with K. pneumoniae SI-117 it was 32 to 64 µg/mL. The MIC with K. pneumoniae UMM and in the test with K. pneumoniae 848844 was 32 to 64 µg/mL in each case.
